Assay [1] concerns D1 -like (Rabbit Splenic Artery). The experiment in a line: D1-like activity in the Rabbit Splenic Artery (RSA) test. Particulars: agonist activity at the peak of the effect; contracted with U46619 0.1 μM. How it is done: Arterial rings were prepared according to Semeraro et al., Naunyn. Schmied. Arch. Pharmacol., 1990, 342, 539.
The arterial preparations were contracted with U46619 (9,11-di-deoxy-11α,9α-epoxy-methanoprostaglandin F2α) at the submaximal concentration 0.1 μM.
(§1) The tested compounds were cumulatively administered.
(§2) Ref. A was used as reference substance.
(§3) Agonist activity evaluated at the peak of the effect and expressed as potency ratio (EC50 of Ref. A/EC50 of tested compound) is reported in table 2.

Assay [2] concerns the target T1, D2 -like (Rabbit Ear Artery) (Oryctolagus cuniculus, UniProt G1T1Q0).
T1 construct: the central ear artery was dissected into 3 mm long rings; from tissue; host or cells: rabbit central ear artery rings (male New Zealand rabbits), electrically stimulated
The assay can be described thus: D2-like activity in the Rabbit Ear Artery (REA) test. The settings on record: agonist activity at the peak of the effect; electrically stimulated. Set-up: species or system New Zealand rabbit. How it is done: Arterial rings were prepared according to the method described by Steinsland et al., Science, 1978, 443, 199, modified as follows. Male New Zealand rabbits weighing 2.5-3 Kg were sacrificed by intravenous injection of an excess of pentobarbital sodium and exsanguinated. The two ears were taken away and the central ear artery was dissected into 3 mm long rings.
These preparations were set up in a 25 ml organ bath containing Krebs solution (mM/l): NaCl 118, KCl 4.7, CaCl2 2.5, MgSO4 1.2, NaHCO3 25, KH2 PO4 1.2, glucose 11.1, equilibrated with 95% 02 -5% CO2 and maintained at 35°±1° C.
Krebs solution was medicated with EDTA (10 μM) to prevent cathecolamine oxydation, desipramine (0.1 μM) and corticosterone (30 μM), to block neuronal and extraneuronal cathecolamine uptake. The preparations were electrically stimulated (10 Hz, 1 msec, 40-80 mA, 500 msec duration) at 5 minutes intervals.
as §1, §2, §3

T1 sequence (G1T1Q0 1-443): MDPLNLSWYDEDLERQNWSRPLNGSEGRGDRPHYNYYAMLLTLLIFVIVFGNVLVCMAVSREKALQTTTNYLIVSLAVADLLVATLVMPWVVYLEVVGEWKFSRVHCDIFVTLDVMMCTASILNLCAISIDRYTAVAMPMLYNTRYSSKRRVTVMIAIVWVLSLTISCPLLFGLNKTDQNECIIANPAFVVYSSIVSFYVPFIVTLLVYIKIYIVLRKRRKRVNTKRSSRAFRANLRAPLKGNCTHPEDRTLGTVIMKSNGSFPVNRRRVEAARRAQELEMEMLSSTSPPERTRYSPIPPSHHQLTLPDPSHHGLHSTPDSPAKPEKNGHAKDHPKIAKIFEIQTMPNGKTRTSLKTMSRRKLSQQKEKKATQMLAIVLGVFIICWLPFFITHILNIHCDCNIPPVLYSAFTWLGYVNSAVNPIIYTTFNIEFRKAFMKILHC

As for `Br.Br.CCCN(CCCCCCNCCc1ccc(O)c(Cl)c1)[C@H]1CCc2c(ccc(O)c2O)C1` [Compound 11, (S)-N-propyl-N-[6-[2-(3-chloro-4-hydroxyphenyl)ethylamino]hexyl]-5,6-dihydroxy-1,2,3,4-tetrahydro-2-naphthylamine dihydrobromide], in assay [1], the “D1 -like (RSA) potency ratio (EC50 of Ref. A/EC50 of tested compound)” value (“D1 -like (RSA) potency ratio” below) amounted to 25. In addition, in assay [2], the “D2 -like (REA) potency ratio (EC50 of Ref. A/EC50 of tested compound)” value (“D2 -like (REA) potency ratio” below) worked out at 4.
With `Br.Br.CCCN(CCCCCCNCCc1ccc(O)c([N+](=O)[O-])c1)[C@H]1CCc2c(ccc(O)c2O)C1` [Compound 12, (S)-N-propyl-N-[6-[2-(3-nitro-4-hydroxyphenyl)ethylamino]hexyl]-5,6-dihydroxy-1,2,3,4-tetrahydro-2-naphthylamine dihydrobromide], the “D1 -like (RSA) potency ratio” value in assay [1] is listed as 5.
For the compound `Br.Br.CCCN(CCCCCCNCCc1ccc(O)c(C)c1)[C@H]1CCc2c(ccc(O)c2O)C1` [Compound 14, (S)-N-propyl-N-[6-[2-(3-methyl-4-hydroxyphenyl)ethylamino]hexyl]-5,6-dihydroxy-1,2,3,4-tetrahydro-2-naphthylamine dihydrobromide], in assay [1], the “D1 -like (RSA) potency ratio” value came to 33. In addition, the “D2 -like (REA) potency ratio” value in assay [2] amounted to 3.
The corresponding values for `Br.Br.CCCN(CCCCCCNCCc1cc(O)c(C)c(O)c1)[C@H]1CCc2c(ccc(O)c2O)C1` [Compound 17, (S)-N-propyl-N-[6-[2-(3,5-dihydroxy-4-methylphenyl)ethylamino]hexyl]-5,6-dihydroxy-1,2,3,4-tetrahydro-2-naphthylamine dihydrobromide] are 12 and 25.
On the same counts, the results for `Br.Br.CCCN(CCCCCCNCCc1ccc2[nH]c(=O)sc2c1)[C@H]1CCc2c(ccc(O)c2O)C1` [Compound 18, (S)-N-propyl-N-[6-[2-(2-oxo-3H-1,3-benzothiazol-6-yl)ethylamino]hexyl]-5,6-dihydroxy-1,2,3,4-tetrahydro-2-naphthylamine dihydrobromide] are 50 and 5.
On the same counts, the results for `Br.Br.CCCN(CCCCCCNCCc1ccc2sc(=O)[nH]c2c1)[C@H]1CCc2c(ccc(O)c2O)C1` [Compound 19, (S)-N-propyl-N-[6-[2-(2-oxo-3H-1,3-benzothiazol-5-yl)ethylamino]hexyl]-5,6-dihydroxy-1,2,3,4-tetrahydro-2-naphthylamine dihydrobromide] are 11 and 4.
Turning to `Br.Br.CCCN(CCCCCCNCCc1cc(O)cc(Cl)c1)[C@H]1CCc2c(ccc(O)c2O)C1` [Compound 21, (S)-N-propyl-N-[6-[2-(3-chloro-5-hydroxyphenyl)ethylamino]hexyl]-5,6-dihydroxy-1,2,3,4-tetrahydro-2-naphthylamine dihydrobromide], in assay [1], the “D1 -like (RSA) potency ratio” value was found to be 3. Besides, the “D2 -like (REA) potency ratio” value in assay [2] came to 1.7.
Regarding `CCCN(CCCCCCNCCc1ccc(O)c(OC)c1)[C@H]1CCc2c(ccc(O)c2O)C1.Cl.Cl` [Compound 26, (S)-N-propyl-N-[6-[2-(3-methoxy-4-hydroxyphenyl)ethylamino]hexyl]-5,6-dihydroxy-1,2,3,4-tetrahydro-2-naphthylamine dihydrochloride], the “D1 -like (RSA) potency ratio” value in assay [1] is 33. Further, the “D2 -like (REA) potency ratio” value in assay [2] stood at 10.
Consider `CCCN(CCCCCCNCCc1ccc(OC)c(O)c1)[C@H]1CCc2c(ccc(O)c2O)C1.Cl.Cl` [Compound 27, (S)-N-propyl-N-[6-[2-(3-hydroxy-4-methoxyphenyl)ethylamino]hexyl]-5,6-dihydroxy-1,2,3,4-tetrahydro-2-naphthylamine dihydrochloride], for which the “D1 -like (RSA) potency ratio” value in assay [1] was determined as 25. Besides, the “D2 -like (REA) potency ratio” value in assay [2] was found to be 4.
